# In patent US12071626B2, “Splice-switching oligonucleotides and methods of use” (priority 2015, dated 2024):
# Entries after “also recorded” stand apart in the source; their conditions may differ. In the oligonucleotide strings, read from the 5' end, every base follows the letter of its sugar. An asterisk marks phosphorothioate; unmarked linkages are phosphodiester. Other units and linkages are bracketed, terminal groups are in braces. A string of capitals states the bases alone. m = 2'-O-methyl
# What was measured:
# Assay type in all cases: cell-based, human
# [1] = test system: EGFR pre-mRNA; experiment: RT-PCR (endpoint, gel) of EGFR exon 16 / exon 18 skipping in LNCaP cells; settings: increasing concentrations of SSO vs transfection reagent alone, RNA 72 hrs after transfection
# Description: (§1) LNCaP cells were treated with transfection reagent alone or with increasing concentrations of exon 16 (left) or exon 18 (right) SSO. RNA was harvested 72 hrs after transfection. Targets were visualized by RT-PCR using primers located in the exons flanking the target exon, as depicted above the gel images. Products were confirmed by sequencing.
# as §1, with “(SSO #1, left in FIG. 8)” for “(left)”, “(SSO #2, right in FIG. 8).” for “(right) SSO.”, “hours” for “hrs”, “images in FIG. 8.” for “images.”, “sequencing. The primers used were: […]” for “sequencing.”
# [2] = test system: EGFR pre-mRNA; experiment: qPCR quantitation of EGFR exon 16 / exon 18 skipped products; settings: increasing concentrations of SSO
# Description: qPCR primers correspond to those used in FIG. 10 and endpoint PCR primers correspond to those used in FIG. 8.
# [3] = test system: pEGFR; experiment: pEGFR Western blot in LNCaP cells after EGF exposure; settings: 250 nM SSO, 72 hrs post transfection, 10 ng/ml EGF for 10 minutes, normalized to GAPDH and vehicle control
# Description: (§2) LNCaP cells were treated with transfection reagent alone or with 250 nM EGRF exon 16 or 18 SSOs. 72 hrs post transfection, cells were exposed to 10 ng/ml EGF for 10 minutes before lysing and haresting total protein. pEGFR and GAPDH were visualized via Western blot and imaged and quantified on a Licor Odyssey Fc. pEGFR quantities are normalized to GAPDH and then to vehicle control.
# as §2, with “EGFR” for “EGRF”, “hours” for “hrs”, “ng/mL” for “ng/ml”, “harvesting” for “haresting”, “via” for “via Western blot and imaged and quantified on a Licor”
# [4] = test system: AR-V7 RNA; experiment: AR-V7 RNA by QRT-PCR in prostate cancer cells transfected with SSO; settings: RNA 72 hours after transfection, normalized to TBP
# Description: (§3) LN95, VCaP, 22Rv1 and MDA PCa 2b cells were treated with control scrambled SSO or with increasing concentrations of AR-V7 SSO, as indicated. RNA was harvested 72 hours after transfection for cDNA production and QRT-PCR analysis. Ct values were normalized to TBP, TATA-binding protein, in each sample and used to generate relative expression values.
# as §3, with “MDA” for “LN95, VCaP, 22Rv1 and MDA”, “transfection reagent alone” for “control scrambled SSO”, “AR45” for “AR-V7”
# [5] = test system: AR-V7 protein; experiment: AR-V7 protein in LN95 prostate cancer cells transfected with SSO; settings: increasing concentrations of SSO
# [6] = test system: MDA PCa 2b prostate cancer cells; experiment: Colony forming ability of MDA PCa 2b prostate cancer cells; settings: MDA PCa 2b cells
# [7] = test system: LN95 prostate cancer cells; experiment: Proliferation of LN95 prostate cancer cells
# [8] = test system: AR45; experiment: AR45 RNA by QRT-PCR in MDA PCa 2b cells transfected with SSO; settings: increasing concentrations of SSO vs transfection reagent alone, RNA 72 hours after transfection, normalized to TBP
# Description: as §3, with “MDA” for “LN95, VCaP, 22Rv1 and MDA”, “transfection reagent alone” for “control scrambled SSO”, “AR45” for “AR-V7”
# [9] = test system: wild type AR; experiment: Wild type (full-length) AR RNA by QRT-PCR in MDA PCa 2b cells transfected with SSO; settings: increasing concentrations of SSO vs transfection reagent alone, RNA 72 hours after transfection, normalized to TBP
# Description: as §3, with “MDA” for “LN95, VCaP, 22Rv1 and MDA”, “transfection reagent alone” for “control scrambled SSO”, “AR45” for “AR-V7”
# [10] = test system: AR signaling; experiment: AR signaling: QRT-PCR of known AR induced and AR repressed targets in MDA PCa 2b cells; settings: 400 nM SSO vs transfection reagent alone, RNA 72 hours after transfection
# Description: MDA Pca 2b cells were treated with transfection reagent alone or with 400 nM AR45 SSO. RNA was harvested 72 hours after transfection for cDNA production and QRT-PCR analysis (Light green=known AR induced targets, dark green=known AR repressed targets).
substance,measurement,setting,value
mC*mC*mA*mG*mG*mG*mA*mC*mC*mU*mU*mA*mC*mC*mU*mU*mA*mU [EGFR exon 18 SSO],"production of dominant-negative EGFR variants (exon skipping, RT-PCR gel)",[1],drive production of dominant-negative EGFR variants in a dose-dependent manner
same,"production of dominant-negative EGFR variants (quantitated, qPCR of skipped product)",[2],drive production of dominant-negative EGFR variants in a dose-dependent manner
same,pEGFR protein expression,[3],block pEGFR protein expression
same,pEGFR protein expression,[3]; listed as EGRF exon 18 SSO,inhibition of pEGFR expression
mG*mC*mC*mA*mA*mC*mC*mC*mG*mG*mA*mA*mU*mU*mU*mU*mU*mC [AR-V7 SSO],AR-V7 RNA relative expression,"[4]; 22Rv1 cells, vs control scrambled SSO",inhibiting AR-V7 RNA; also recorded: Dose-dependent inhibition of AR-V7
same,AR-V7 RNA relative expression,"[4]; LN95 cells, increasing concentrations of SSO vs control scrambled SSO",inhibiting AR-V7 RNA (left) and protein (right) in a dose-dependent manner; also recorded: Dose-dependent inhibition of AR-V7
same,AR-V7 RNA relative expression,"[4]; MDA PCa 2b cells, vs control scrambled SSO",inhibiting AR-V7 RNA; also recorded: Dose-dependent inhibition of AR-V7
same,AR-V7 RNA relative expression,"[4]; VCaP cells, vs control scrambled SSO",inhibiting AR-V7 RNA; also recorded: Dose-dependent inhibition of AR-V7
same,AR-V7 protein,[5],inhibiting AR-V7 RNA (left) and protein (right) in a dose-dependent manner
same,colony forming ability,[6],inhibiting colony forming ability
same,proliferation,[7],inhibiting proliferation
same,proliferation in the presence of enzalutamide,[7]; in the presence of enzalutmide,inhibiting proliferation
mG*mC*mU*mG*mU*mG*mA*mA*mC*mA*mC*mU*mU*mA*mC*mC*mC*mA [EGFR exon 16 SSO],"production of dominant-negative EGFR variants (exon skipping, RT-PCR gel)",[1],drive production of dominant-negative EGFR variants in a dose-dependent manner
same,"production of dominant-negative EGFR variants (quantitated, qPCR of skipped product)",[2],drive production of dominant-negative EGFR variants in a dose-dependent manner
same,pEGFR protein expression,[3],block pEGFR protein expression
same,pEGFR protein expression,[3]; listed as EGRF exon 16 SSO,inhibition of pEGFR expression
mG*mG*mA*mA*mA*mA*mA*mC*mU*mU*mA*mC*mC*mG*mC*mA*mU*mG [AR45 SSO],expression of AR-V7 RNA,"[4]; MDA PCa 2b cells, increasing concentrations of SSO vs transfection reagent alone","decreasing wild type AR and AR-V7; also recorded: decreasing expression of full-length AR and the constitutively active AR variant, AR-V7"
same,production of AR45 (RNA relative expression),[8],"drives production of the dominant-negative AR variant, AR45"
same,expression of wild type (full-length) AR RNA,[9],decreasing wild type AR and AR-V7; also recorded: decreasing expression of full-length AR
same,AR signaling (RNAs of AR induced and AR repressed targets),[10],modulating AR signaling; also recorded: Modulation of AR signaling
